Assay results: ChEMBL document CHEMBL5303304, “EUbOPEN Chemogenomics Library - IncuCyte” (2023)
Where “and” joins values, the source holds several entries; their conditions need not be identical. Identical values can stand only once.

Experiments:
Format in all cases: toxicity, cell-based
HEK-293T = assay: Incucyte cell viability with HEK293T; details: human, 10 µM, compound concentration 10 uM
Fibroblast = assay: Incucyte cell viability with human fibroblast; details: 10 µM, compound concentration 10 uM
U2OS = assay: Incucyte cell viability with U2OS; details: human, 10 µM, compound concentration 10 uM
Further: unitless GR value; below 1 slowed growth and below 0 cell loss.

| Structure (SMILES) | Growth Rate (HEK-293T; 0 h, replicate number 1) | Growth Rate (HEK-293T; 0 h, replicate number 2) | Growth Rate (HEK-293T; 6 h, replicate number 2) | Growth Rate (HEK-293T; 12 h, replicate number 2) | Growth Rate (HEK-293T; 18 h, replicate number 2) | Growth Rate (HEK-293T; 24 h, replicate number 2) | Growth Rate (Fibroblast; 0 h, replicate number 2) | Growth Rate (U2OS; 0 h, replicate number 2) | Growth Rate (U2OS; 6 h, replicate number 1) | Growth Rate (U2OS; 6 h, replicate number 2) | Growth Rate (U2OS; 12 h, replicate number 2) | Growth Rate (U2OS; 24 h, replicate number 2) | Growth Rate (HEK-293T; 6 h, replicate number 1) | Growth Rate (HEK-293T; 12 h, replicate number 1) | Growth Rate (Fibroblast; 12 h, replicate number 2) | Growth Rate (Fibroblast; 24 h, replicate number 1) | Growth Rate (U2OS; 12 h, replicate number 1) | Growth Rate (U2OS; 24 h, replicate number 1) | Growth Rate (HEK-293T; 24 h, replicate number 1) | Growth Rate (HEK-293T; 18 h, replicate number 1) | further results |
| --- | --- | --- | --- | --- | --- | --- | --- | --- | --- | --- | --- | --- | --- | --- | --- | --- | --- | --- | --- | --- | --- |
| Cn1nc(C(=O)NCc2ccc(C(=O)O)cc2)cc1-c1ccc2[nH]ccc2c1 [BI 4395] | -0.1 | 0.58 | 0.57 | 0.63 | 0.85 | 0.56 | -0.67 | 0.14 | 0.66 | 0.99 | 0.96 | 0.9 | – | – | – | – | – | – | – | – | – |
| Cn1c(C2(NC(=O)c3ccc(NCC4CCCCC4)nc3)CCC2)nc2ccc(/C=C/C(=O)O)cc21 [BI 7656] | – | -0.78 | – | – | – | – | – | 0.24 | 0.81 | – | – | 0.93 | 0.41 | 0.81 | 0.82 | 0.94 | 0.92 | 0.92 | – | – | Growth Rate (Fibroblast; 6 h, replicate number 2): -0.44; Growth Rate (Fibroblast; 24 h, replicate number 2): 0.72; Growth Rate (U2OS; 0 h, replicate number 1): 0.79 |
| CS(=O)(=O)NCC[C@H](NC(=O)c1cncc2c1cnn2-c1ccc(F)cc1)c1ccnc(S(C)(=O)=O)c1 [BI 9307] | -0.12 | 0.23 | – | – | – | – | -0.94 | – | 0.83 | 0.9 | 0.91 | – | – | – | – | – | – | – | 1 | – | Growth Rate (Fibroblast; 0 h, replicate number 1): -0.98; Growth Rate (Fibroblast; 6 h, replicate number 1): 0.89; Growth Rate (Fibroblast; 12 h, replicate number 1): 0.91 |
| C[C@@]1(Cc2ccc(C#N)cc2)C(=O)N(c2cc(Cl)cc(Cl)c2)c2ncc(C(=O)NC3(c4nc(C5CCC5)no4)CC3)n21 [BI 9446] | 0.53 | – | – | 0.74 | 0.52 | 0.48 | -0.17 | 0.34 | 0.76 | 1 | 0.61 | 0.94 | 0.51 | 0.15 | 0.12 | 0.4 | 0.77 | 0.67 | 0.21 | 0.2 | Growth Rate (Fibroblast; 0 h, replicate number 1): -1; Growth Rate (Fibroblast; 6 h, replicate number 1): 0.23; Growth Rate (Fibroblast; 6 h, replicate number 2): -0.58; Growth Rate (Fibroblast; 12 h, replicate number 1): 0.61; Growth Rate (Fibroblast; 18 h, replicate number 1): 0.41; Growth Rate (Fibroblast; 18 h, replicate number 2): 0.52; Growth Rate (Fibroblast; 24 h, replicate number 2): 0.41; Growth Rate (U2OS; 18 h, replicate number 1): 0.83; Growth Rate (U2OS; 18 h, replicate number 2): 0.75 |
| CC(=O)N1CCC(c2ccc(C(=O)NC(=N)N)cc2C(F)(F)F)CC1 [BI 9627] | 0.72 | – | 0.69 | 0.65 | 0.77 | 0.92 | – | 0.44 | 0.3 | – | 0.96 | 0.92 | – | – | 0.57 | 0.8 | 0.75 | 1 | – | – | Growth Rate (Fibroblast; 18 h, replicate number 2): 0.95; Growth Rate (Fibroblast; 24 h, replicate number 2): 0.76; Growth Rate (U2OS; 0 h, replicate number 1): 0.01; Growth Rate (U2OS; 18 h, replicate number 1): 0.9 |
| CCC(=O)N[C@H]1CC[C@@H](C(=O)N(C)c2ccc(-c3nc4ccccc4o3)cc2)C1 [BI 99179] | – | – | 0.11 | 0.26 | 0.51 | 0.69 | -0.49 | – | 0.68 | – | 0.65 | 0.96 | 0.1 | 0.1 | – | 0.79 | 0.89 | 0.86 | 0.51 | 0.31 | Growth Rate (Fibroblast; 6 h, replicate number 1): 0.53; Growth Rate (Fibroblast; 6 h, replicate number 2): 0.58; Growth Rate (Fibroblast; 12 h, replicate number 1): 0.5; Growth Rate (Fibroblast; 18 h, replicate number 1): 0.66; Growth Rate (Fibroblast; 18 h, replicate number 2): 0.98; Growth Rate (U2OS; 0 h, replicate number 1): 0.2; Growth Rate (U2OS; 18 h, replicate number 1): 0.98; Growth Rate (U2OS; 18 h, replicate number 2): 0.87 |
| CCC(=O)N[C@@H]1CC[C@H](C(=O)N(C)c2ccc(-c3nc4ccccc4o3)cc2)C1 [BI 99990] | – | – | 0.12 | 0.49 | 0.66 | 0.8 | – | – | 0.62 | 0.78 | 0.64 | – | -0.34 | 0.47 | – | 0.79 | 0.58 | 0.96 | 0.82 | 0.8 | Growth Rate (Fibroblast; 24 h, replicate number 2): 0.81 |
| CS(=O)(=O)c1cc(C2(NC(=O)c3cncc4c3cnn4-c3ccc(F)cc3)CC2)ccn1 [BI 639667] | – | -0.17 | – | – | – | – | -0.75 | – | 0.64 | – | 0.76 | – | 0.52 | 0.77 | 0.97 | – | – | – | 1 | 0.9 | – |
| CN(C)C(=O)Cn1cc(-c2nc([C@@](C)(c3ccc(-c4cnc(N)nc4)cc3)C3CC3)no2)cn1 [BI 665915] | 0.53 | – | – | – | 0.9 | – | -0.12 | 0.28 | 0.55 | 0.71 | 0.87 | 0.88 | 0.47 | – | – | 0.6 | 0.68 | 0.95 | 0.96 | 0.93 | Growth Rate (Fibroblast; 0 h, replicate number 1): -1; Growth Rate (Fibroblast; 6 h, replicate number 1): 0.2; Growth Rate (Fibroblast; 12 h, replicate number 1): 0.51; Growth Rate (Fibroblast; 18 h, replicate number 1): 0.71; Growth Rate (Fibroblast; 18 h, replicate number 2): 0.97; Growth Rate (U2OS; 18 h, replicate number 2): 0.99 |
| CC[C@H](CC(=O)O)n1c(=O)c2ncccc2n(Cc2cn(C)c3cc(C)cc(C)c23)c1=O [BI-1942] | 0.52 | -0.53 | 0.45 | 0.58 | 0.52 | 0.65 | 0 | 0.8 | 0.25 and 0.31 | 0.74 | 0.71 and 0.98 | 0.61 | – | – | 0.64 and 0.67 | 0.7 and 1 | 0.47 and 0.65 | 0.67 and 0.73 | – | 0.94 | Growth Rate (Fibroblast; 6 h, replicate number 1): 0.14; Growth Rate (Fibroblast; 6 h, replicate number 2): 0.23 and 0.17; Growth Rate (Fibroblast; 12 h, replicate number 1): 0.83 and 0.8; Growth Rate (Fibroblast; 18 h, replicate number 1): 0.75 and 0.86; Growth Rate (Fibroblast; 18 h, replicate number 2): 0.58; Growth Rate (Fibroblast; 24 h, replicate number 2): 0.86 and 0.92; Growth Rate (U2OS; 0 h, replicate number 1): 0.47 and 0.69; Growth Rate (U2OS; 18 h, replicate number 1): 0.61 and 0.75; Growth Rate (U2OS; 18 h, replicate number 2): 0.84 |
| CC[C@@H]1C(=O)N(C)c2cnc(Nc3ccc(C(=O)NC4CCN(C)CC4)cc3OC)nc2N1C1CCCC1 [BI-2536] | – | – | 0.73 | 0.08 | – | -0.18 | -0.99 | 0.33 | – | – | 0.59 | 0.3 | 0.45 | -0.09 | – | 0.41 | 0.69 | 0.08 | -0.17 | -0.18 | Growth Rate (Fibroblast; 18 h, replicate number 1): 0.76; Growth Rate (Fibroblast; 18 h, replicate number 2): 0.83; Growth Rate (Fibroblast; 24 h, replicate number 2): 0.46; Growth Rate (U2OS; 18 h, replicate number 1): 0.34; Growth Rate (U2OS; 18 h, replicate number 2): 0.42 |
| CN(C)C(=O)c1sc2nc(N3CCC(S(C)(=O)=O)CC3)cc(C(F)(F)F)c2c1N [BI-5026] | – | 0.24 | 0.65 | 0.99 | 0.85 | 0.98 | -0.94 | – | 0.38 and 0.65 | – | – | – | 0.88 and 0.51 | 0.83 and 0.56 | – | – | 0.88 and 0.68 | 0.88 and 0.97 | 0.97 and 0.77 | 0.86 and 0.6 | Growth Rate (Fibroblast; 0 h, replicate number 1): -1; Growth Rate (U2OS; 18 h, replicate number 1): 0.84 |
| Cc1nc2ccccc2c(-c2ccc3c4c(ccnc24)CCO3)c1[C@H](OC(C)(C)C)C(=O)O [BI-224436] | 0.67 | 0.86 | – | – | – | – | – | -0.37 | 0.57 | 0.42 | 0.72 | 0.75 | – | – | 0.76 | – | 0.77 | – | – | – | Growth Rate (U2OS; 18 h, replicate number 2): 0.85 |
| CCC(F)(F)c1cc(N2CCC(S(C)(=O)=O)CC2)nc2sc(C(N)=O)c(N)c12 [BI-605906] | -0.07 | – | 0.83 and 0.48 | 0.72 | 0.97 and 0.85 | 0.91 | 0.48 | – | 0.71 | – | -0.82 | 0.9 | 0.34 and 0.47 | 0.79 and 0.84 | 0.85 and 0.57 and 0.87 | 0.9 and 0.91 | – | 0.96 | 0.98 | 0.74 and 0.73 | Growth Rate (Fibroblast; 0 h, replicate number 1): 0.11; Growth Rate (Fibroblast; 6 h, replicate number 1): 0.8; Growth Rate (Fibroblast; 6 h, replicate number 2): 0.76 and 0.88; Growth Rate (Fibroblast; 12 h, replicate number 1): 0.8; Growth Rate (Fibroblast; 18 h, replicate number 1): 0.99; Growth Rate (Fibroblast; 24 h, replicate number 2): 0.97 and 0.94; Growth Rate (U2OS; 18 h, replicate number 1): 0.91; Growth Rate (U2OS; 18 h, replicate number 2): 0.92 |
